The results in this text go back to US20150337267A1, “REPROGRAMMED STEM CELL” (KYOTO UNIVERSITY, priority 2013, published 2015).

Experiment [1] relates to phosphorylated mTOR (p-mTOR). Nature of the experiment: Phosphorylation of mTOR in iRS cells. The format is cell-based, human. Particulars: addition to conditioned medium, vs DMSO control. The procedure:
(§1) CM is conditioned medium.
iRS cells were plated at a high density (1×10^6 cells) on a 3 cm dish coated with Matrigel, 0.5 mM VPA was added to the MEF-conditioned medium and culture was continued. […] Phosphorylation of mTOR then was measured.

A further experiment has as its system iRS cells. Kind of experiment: Conversion of iRS cells to DsRed-negative (pluripotent) cells in high-density culture. The class given is cell-based, human. Particulars: 0.5 mM added to MEF-conditioned medium, high-density culture (1×10^6 cells, 3 cm dish), day 6 after plating. On the procedure:
as §1
The iRS cells were plated at a high density (1×10^6 cells) on a 3 cm dish coated with Matrigel, and culture was continued in a MEF-conditioned medium. From day 3, DsRed-negative cells were occasionally found, and DsRed-negative cell clump could be confirmed on day 6. On day 10, ES cell-like colony could be confirmed (FIG. 3A). The expression levels of exogenous OCT4 and SOX2 at that time were confirmed by quantitative PCR. Expression of exogenous gene disappeared on day 6 of high-density culture, and re-expression was void thereafter (FIG. 3B). Furthermore, the expression levels of the endogenous OCT4, TDGF1 and ECAD were confirmed by quantitative PCR. As a result, expression of these pluripotent marker genes was confirmed (FIG. 3C). Similarly, the mRNA expression levels of other pluripotent marker genes were confirmed on a heat map. As a result, mostly similar gene expression profiles were confirmed on day 6 and day 10 (FIG. 3D). Moreover, SSEA4 and ECAD, which are surface antigen markers showing pluripotency, were tested by an immunostaining method. As a result, both surface antigens could be recognized from day 6 (FIG. 3E). […]
iRS cells were plated at a high density (1×10^6 cells) on a 3 cm dish coated with Matrigel, 0.5 mM VPA was added to the MEF-conditioned medium and culture was continued. […] Phosphorylation of mTOR then was measured. […]

As for `CCCC(CCC)C(=O)[O-].[Na+]` [VPA, sodium valproate], in experiment [1], the “amount of phosphorylated mTOR (p-mTOR)” value is given as “increased”. For the same compound, the “conversion rate to DsRed-negative cells” value with iRS cells was “strikingly high”.
